Results as given in PubChem BioAssay (NCI).
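Results reflect a 48-hour exposure of cells in 96-well plates to compound at five concentrations. TGI: total growth inhibition.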

Key:
Test in all cases: DTP human tumour cell line panel, 48 h
SK-MEL-28 melanoma = tested on: SK-MEL-28 melanoma
U251 CNS = tested on: U251 CNS
HL-60(TB) leukemia = tested on: HL-60(TB) leukemia
OVCAR-3 ovarian = tested on: OVCAR-3 ovarian
OVCAR-8 ovarian = tested on: OVCAR-8 ovarian
TK-10 renal = tested on: TK-10 renal
MDA-MB-435 = tested on: MDA-MB-435
MCF7 breast = tested on: MCF7 breast
NCI-H522 lung = tested on: NCI-H522 lung
ACHN renal = tested on: ACHN renal
COLO 205 colon = tested on: COLO 205 colon
HCT-15 colon = tested on: HCT-15 colon
KM12 colon = tested on: KM12 colon
PC-3 prostate = tested on: PC-3 prostate
EKVX NSCLC = tested on: EKVX NSCLC
NCI-H23 lung = tested on: NCI-H23 lung
K-562 leukemia = tested on: K-562 leukemia
NCI-H460 lung = tested on: NCI-H460 lung
MOLT-4 leukemia = tested on: MOLT-4 leukemia
SK-MEL-5 melanoma = tested on: SK-MEL-5 melanoma
HCC-2998 colon = tested on: HCC-2998 colon
NCI-H226 lung = tested on: NCI-H226 lung
HCT-116 colon = tested on: HCT-116 colon
MDA-N = tested on: MDA-N
LOX IMVI melanoma = tested on: LOX IMVI melanoma
HOP-92 NSCLC = tested on: HOP-92 NSCLC
HOP-62 NSCLC = tested on: HOP-62 NSCLC
MDA-MB-231 breast = tested on: MDA-MB-231 breast
HT29 colon = tested on: HT29 colon
786-0 renal = tested on: 786-0 renal
A498 renal = tested on: A498 renal
SF-539 CNS = tested on: SF-539 CNS
SNB-19 CNS = tested on: SNB-19 CNS
UACC-257 melanoma = tested on: UACC-257 melanoma
OVCAR-5 ovarian = tested on: OVCAR-5 ovarian
OVCAR-4 ovarian = tested on: OVCAR-4 ovarian
IGROV1 ovarian = tested on: IGROV1 ovarian
SF-295 CNS = tested on: SF-295 CNS
CCRF-CEM leukemia = tested on: CCRF-CEM leukemia
RXF 393 renal = tested on: RXF 393 renal
HS 578T breast = tested on: HS 578T breast
RPMI-8226 leukemia = tested on: RPMI-8226 leukemia
NCI/ADR-RES ovarian = tested on: NCI/ADR-RES ovarian
SF-268 CNS = tested on: SF-268 CNS
UO-31 renal = tested on: UO-31 renal
SW-620 colon = tested on: SW-620 colon
T-47D breast = tested on: T-47D breast
SN12C renal = tested on: SN12C renal
DU-145 prostate = tested on: DU-145 prostate
CAKI-1 renal = tested on: CAKI-1 renal
MALME-3M melanoma = tested on: MALME-3M melanoma
SNB-75 CNS = tested on: SNB-75 CNS
A549 NSCLC = tested on: A549 NSCLC
M14 melanoma = tested on: M14 melanoma
SR leukemia = tested on: SR leukemia
UACC-62 melanoma = tested on: UACC-62 melanoma
BT-549 breast = tested on: BT-549 breast
SK-OV-3 ovarian = tested on: SK-OV-3 ovarian
SK-MEL-2 melanoma = tested on: SK-MEL-2 melanoma

With CN(C)Cc1cc(C(=O)/C=C/c2c(Cl)cccc2Cl)cc(CN(C)C)c1O the TGI (SK-MEL-28 melanoma) was 20.9 µM, the TGI (U251 CNS) was 23.4 µM and the TGI (HL-60(TB) leukemia) was 11.7 µM. It also gave a TGI (OVCAR-3 ovarian) of 23.6 µM, a TGI (OVCAR-8 ovarian) of 15.2 µM and a TGI (TK-10 renal) of 27.8 µM. The TGI (MDA-MB-435) was 21.9 µM, the TGI (MCF7 breast) was 14.7 µM and the TGI (NCI-H522 lung) was 10.7 µM. For the same molecule, the TGI (ACHN renal) was 12.4 µM, the TGI (COLO 205 colon) was 7.66 µM and the TGI (HCT-15 colon) was 24.2 µM. The TGI (KM12 colon) was 7.2 µM, the TGI (PC-3 prostate) was 19 µM and the TGI (EKVX NSCLC) was 23.2 µM. For the same molecule, the TGI (NCI-H23 lung) was 34.2 µM, the TGI (K-562 leukemia) was 13.4 µM and the TGI (NCI-H460 lung) was 13 µM. The TGI (MOLT-4 leukemia) was 30.3 µM, the TGI (SK-MEL-5 melanoma) was 13.9 µM and the TGI (HCC-2998 colon) was 34.7 µM. It also gave a TGI (NCI-H226 lung) of 32.4 µM, a TGI (HCT-116 colon) of 19.6 µM and a TGI (MDA-N) of 12.7 µM. It also gave a TGI (LOX IMVI melanoma) of 4.45 µM, a TGI (HOP-92 NSCLC) of 9.06 µM and a TGI (HOP-62 NSCLC) of 20.2 µM. For the same molecule, the TGI (MDA-MB-231 breast) was 15.1 µM, the TGI (HT29 colon) was 11.6 µM and the TGI (786-0 renal) was 16.2 µM. The TGI (A498 renal) was 22.5 µM, the TGI (SF-539 CNS) was 34.4 µM and the TGI (SNB-19 CNS) was 31 µM. It also gave a TGI (UACC-257 melanoma) of 16.9 µM, a TGI (OVCAR-5 ovarian) of 32.2 µM and a TGI (OVCAR-4 ovarian) of 24.8 µM. The TGI (IGROV1 ovarian) was 21.8 µM, the TGI (SF-295 CNS) was 23.1 µM and the TGI (CCRF-CEM leukemia) was 59 µM. It also gave a TGI (RXF 393 renal) of 18.6 µM, a TGI (HS 578T breast) of 38.7 µM and a TGI (RPMI-8226 leukemia) of 39 µM. For the same molecule, the TGI (NCI/ADR-RES ovarian) was 41 µM, the TGI (SF-268 CNS) was 32.4 µM and the TGI (UO-31 renal) was 8.85 µM. It also gave a TGI (SW-620 colon) of 13.9 µM, a TGI (T-47D breast) of 42 µM and a TGI (SN12C renal) of 21 µM. The TGI (DU-145 prostate) was 20.8 µM, the TGI (CAKI-1 renal) was 6.74 µM and the TGI (MALME-3M melanoma) was 15.7 µM. For the same molecule, the TGI (SNB-75 CNS) was 15.7 µM, the TGI (A549 NSCLC) was 29.5 µM and the TGI (M14 melanoma) was 18.9 µM. The TGI (SR leukemia) was 22.6 µM.
CC(=O)OCCC[C@@H]1C(=C(C)C)CCC2[C@@]1(C)CC[C@@]1(C)C[C@](C)(CCC=C(C)C)CC[C@]21C (some centres not stated) gave a TGI (SK-MEL-28 melanoma) greater than 100 µM, a TGI (U251 CNS) greater than 100 µM and a TGI (HL-60(TB) leukemia) greater than 100 µM. The TGI (OVCAR-3 ovarian) was greater than 100 µM, the TGI (OVCAR-8 ovarian) was greater than 100 µM and the TGI (TK-10 renal) was 0.0632 µM. It also gave a TGI (MDA-MB-435) greater than 100 µM, a TGI (MCF7 breast) greater than 100 µM and a TGI (NCI-H522 lung) greater than 100 µM. The TGI (ACHN renal) was greater than 100 µM, the TGI (COLO 205 colon) was greater than 100 µM and the TGI (HCT-15 colon) was greater than 100 µM. It also gave a TGI (KM12 colon) greater than 100 µM, a TGI (PC-3 prostate) greater than 100 µM and a TGI (EKVX NSCLC) greater than 100 µM. The TGI (NCI-H23 lung) was greater than 100 µM, the TGI (NCI-H460 lung) was greater than 100 µM and the TGI (MOLT-4 leukemia) was greater than 100 µM. The TGI (SK-MEL-5 melanoma) was greater than 100 µM, the TGI (HCC-2998 colon) was greater than 100 µM and the TGI (NCI-H226 lung) was greater than 100 µM. For the same molecule, the TGI (HCT-116 colon) was greater than 100 µM, the TGI (MDA-N) was greater than 100 µM and the TGI (HOP-62 NSCLC) was greater than 100 µM. It also gave a TGI (MDA-MB-231 breast) greater than 100 µM, a TGI (HT29 colon) greater than 100 µM and a TGI (786-0 renal) greater than 100 µM. It also gave a TGI (A498 renal) greater than 100 µM, a TGI (SF-539 CNS) greater than 100 µM and a TGI (UACC-62 melanoma) greater than 100 µM. The TGI (SNB-19 CNS) was greater than 100 µM, the TGI (UACC-257 melanoma) was greater than 100 µM and the TGI (OVCAR-5 ovarian) was greater than 100 µM. It also gave a TGI (OVCAR-4 ovarian) greater than 100 µM, a TGI (IGROV1 ovarian) greater than 100 µM and a TGI (SF-295 CNS) greater than 100 µM. For the same molecule, the TGI (CCRF-CEM leukemia) was greater than 100 µM, the TGI (HS 578T breast) was greater than 100 µM and the TGI (RPMI-8226 leukemia) was greater than 100 µM. For the same molecule, the TGI (NCI/ADR-RES ovarian) was greater than 100 µM, the TGI (SF-268 CNS) was greater than 100 µM and the TGI (UO-31 renal) was 46.1 µM. For the same molecule, the TGI (SW-620 colon) was greater than 100 µM, the TGI (BT-549 breast) was greater than 100 µM and the TGI (T-47D breast) was greater than 100 µM. For the same molecule, the TGI (SN12C renal) was greater than 100 µM, the TGI (DU-145 prostate) was greater than 100 µM and the TGI (SK-OV-3 ovarian) was greater than 100 µM. For the same molecule, the TGI (CAKI-1 renal) was greater than 100 µM, the TGI (MALME-3M melanoma) was greater than 100 µM and the TGI (SNB-75 CNS) was greater than 100 µM. It also gave a TGI (A549 NSCLC) greater than 100 µM and a TGI (M14 melanoma) greater than 100 µM.
For O=C(CCc1ccc(O)c(O)c1)c1ccc(O)c(O)c1O, the TGI (SK-MEL-28 melanoma) was greater than 100 µM, the TGI (U251 CNS) was 62.4 µM and the TGI (HL-60(TB) leukemia) was 32.6 µM. The TGI (OVCAR-8 ovarian) was 74.2 µM, the TGI (TK-10 renal) was 47.3 µM and the TGI (MDA-MB-435) was 62.2 µM. For the same molecule, the TGI (MCF7 breast) was 42 µM, the TGI (NCI-H522 lung) was 41.1 µM and the TGI (ACHN renal) was 28.4 µM. For the same molecule, the TGI (COLO 205 colon) was 34.3 µM, the TGI (HCT-15 colon) was 33 µM and the TGI (KM12 colon) was 36.2 µM. It also gave a TGI (PC-3 prostate) greater than 100 µM, a TGI (EKVX NSCLC) of 48.4 µM and a TGI (NCI-H23 lung) of 61.3 µM. The TGI (K-562 leukemia) was 66 µM, the TGI (NCI-H460 lung) was 36.2 µM and the TGI (MOLT-4 leukemia) was 89.5 µM. It also gave a TGI (SK-MEL-5 melanoma) of 36.3 µM, a TGI (HCC-2998 colon) greater than 100 µM and a TGI (NCI-H226 lung) of 36.2 µM. It also gave a TGI (HCT-116 colon) greater than 100 µM, a TGI (MDA-N) of 32.2 µM and a TGI (LOX IMVI melanoma) greater than 100 µM. It also gave a TGI (HOP-92 NSCLC) of 68.4 µM, a TGI (MDA-MB-231 breast) of 55.5 µM and a TGI (HT29 colon) of 84 µM. It also gave a TGI (786-0 renal) greater than 100 µM, a TGI (A498 renal) greater than 100 µM and a TGI (SF-539 CNS) of 37.7 µM. It also gave a TGI (UACC-62 melanoma) greater than 100 µM, a TGI (SNB-19 CNS) greater than 100 µM and a TGI (UACC-257 melanoma) greater than 100 µM. The TGI (OVCAR-5 ovarian) was 49.4 µM, the TGI (OVCAR-4 ovarian) was 78.5 µM and the TGI (IGROV1 ovarian) was greater than 100 µM. For the same molecule, the TGI (SF-295 CNS) was 36.7 µM, the TGI (CCRF-CEM leukemia) was 47.3 µM and the TGI (HS 578T breast) was greater than 100 µM. It also gave a TGI (NCI/ADR-RES ovarian) greater than 100 µM, a TGI (SF-268 CNS) of 60.6 µM and a TGI (UO-31 renal) greater than 100 µM. For the same molecule, the TGI (SW-620 colon) was greater than 100 µM, the TGI (T-47D breast) was 66.3 µM and the TGI (SN12C renal) was 31.9 µM. The TGI (DU-145 prostate) was 37.2 µM, the TGI (SK-OV-3 ovarian) was greater than 100 µM and the TGI (SK-MEL-2 melanoma) was greater than 100 µM. The TGI (CAKI-1 renal) was 37.9 µM, the TGI (MALME-3M melanoma) was greater than 100 µM and the TGI (SNB-75 CNS) was greater than 100 µM. For the same molecule, the TGI (A549 NSCLC) was greater than 100 µM, the TGI (M14 melanoma) was 41.7 µM and the TGI (SR leukemia) was greater than 100 µM.
